{
  "source": "patent US8017649B2",
  "about": "“Flavonoid compounds and uses thereof” (Howard Florey Institute of Experimental Physiology and …, priority 2005, dated 2011)",
  "key": {"[1]": {"tested_on": "superoxide anions generated in rat aorta", "assay": "Superoxide anion production in rat isolated aortic segments (lucigenin chemiluminescence, NADPH)", "format": "cell-based", "settings": "disodium salt", "method": "Superoxide anion production in rat isolated aortic segments was determined using lucigenin chemiluminescence. Aortic rings were prepared as described above and then placed in ice-cold Krebs-(N-[2-Hydroxyethyl]piperazine-N′-[2-ethanesulfonic acid] (HEPES buffer) (composition (mM); NaCl 99.0, KCl 4.7, KH2PO4 1.0, MgSO4·7H2O 1.2, D-glucose 11.0, NaHCO3 25.0, CaCl2·2H2O 2.5, Na-HEPES 20.0). Aortic rings were pre-incubated for 45 minutes at 37° C. with a pH 7.4, in Krebs-HEPES buffer containing diethylthiocarbamic acid (DETCA, 10^−3 M) to inactivate superoxide dismutase and β-nicotinamide adenine dinucleotide phosphate (NADPH, 10^−4 M) as a substrate for NADPH oxidase and either 3′,4′-dihydroxyflavonol (10^−4 M) as a positive control, vehicle, 3-hydroxyflavone-3-hemiadipate, 3′,4′-dihydroxy-3-hemiadipate, 3-hydroxyflavone-3-phosphate (10^−8-10^−4 M). Background photon emission was measured for 12 cycles in a 96-well Optiplate containing 0.3 ml per well of Krebs-HEPES buffer together with lucigenin (5×10^−5 M) and vehicle or flavonoid (10^−8-10^−4 M). Each cycle was counted every one minute. After background reading was completed the incubated aortic rings were transferred to the appropriate wells and photon emission was recounted as described above. The tissue was then placed in a 65° C. oven for 48 hours to allow superoxide production to be normalised to dry tissue weight.\nThe effects of vehicle, 3′,4′-dihydroxyflavone-3-hemiadipate (21) (DiOHF3HA, 10^−8 M-10^−4 M) and DiOHF (10^−4 M) in the presence and absence of Butyryl cholinesterase (BuCHE), 100, 300 and 1000 U/L) on the level of superoxide anions generated in rat isolated aortic segments in the presence of NADPH was expressed as a percentage of control. The method used was as described above except for the addition of the butyryl cholinesterase.\nThe effect of vehicle, 3-hydroxyflavone-3-phosphate (10^−8 to 10^−4 M) in the presence or absence of phosphatase (1000 U/L) on the level of superoxide anions generated in rat aorta in the presence of NADPH expressed as a percentage of control was determined as described above for the 3′,4′-dihydroxyflavone-3-hemiadipate."}, "[2]": {"tested_on": "endothelium intact aortic rings", "assay": "Effect on ACh relaxation of precontracted rat aortic rings", "format": "cell-based", "settings": "for Rmax of ACh relaxation: n=5", "method": "(§1) After wash out and re-equilibration for 30 min, the aortic rings were then submaximally precontracted with PE and U46619, which were used to produce an active tension of 45-60% of the KPSS-induced maximum contraction. When investigating the effects of the flavonoids, flavonol, flavone-3-hemiadipate (F3HA), 3′, 4′-dihydroxyflavone, 3′,4′-dihydroxyflavonol, 3′,4′-dihydroxyflavone-3-hemiadipate (DiOHF3HA), and flavone-3-phosphate (F3P) on vasorelaxant responses, rings were incubated with one of the compounds for 20 mins before they were precontracted submaximally, followed by a cumulative-concentration response curve to ACh (100 nM-10 μM) or SNP ([…]). In experiments using F3P 1000U/L phosphatase was used in some experiments to cleave the phosphate. Some experiments were conducted in the presence and absence of butyryl cholinesterase (BuCHE, 1000 U/L) to cleave the adipate in DiOHF3HA and F3HA."}, "[3]": {"tested_on": "endothelium-intact aortic rings treated with pyrogallol", "assay": "Vasorelaxation to ACh in the presence of oxidative stress (pyrogallol)", "format": "cell-based, rat", "settings": "pyrogallol 2×10^−5 M, F3P plus phosphatase; disodium salt", "method": "Control cumulative relaxation responses to ACh were compared with those obtained from endothelium-intact aortic rings treated with pyrogallol (2×10^−5 M). The effects of vehicle (0.1% DMSO), phosphatase (1000 U/L) or F3P (10^−6-10^−4 M) on responses to ACh in the rat isolated aortic rings exposed to pyrogallol (2×10^−5 M) were also determined. Pyrogallol was added when the aortic rings had reached a stable level of contraction with PE and U44619 at a level between 50 and 70% of KPSS-induced tension and 10 minutes was allowed before determining the cumulative concentration-response curves to ACh. In some experiments using F3P 1000 U/L phosphatase was used to cleave the phosphate."}, "[4]": {"tested_on": "endothelium intact aortic rings", "assay": "Ca2+-induced contraction of rat aortic rings in Ca2+-free high-K+ solution", "format": "cell-based", "method": "To determine the effect of flavonoids on responses to the influx of extracellular Ca^2+, contractile responses to exogenous application of Ca^2+ were examined in the presence of flavonoids in Ca^2+-free high-K^+ solution (60 mM, KPSS). Aortic rings were initially equilibrated at a resting tension of 1 g in normal Ca^2+-free PSS for 45 minutes. The bath medium was then replaced with Ca^2+-free KPSS for 45 minutes to determine a reference contraction to Ca^2+ (3×10^−3 M). Following a 30 minute re-equilibration period with Ca^2+-free PSS, the cumulative contractile responses to Ca^2+ (10^−5−3×10^−3 M) were determined in KPSS in the presence of a range of concentrations (10^−8-10^−4 M) of vehicle, 3′,4′-dihydroxyflavonol, 3-hydroxyflavone-3-hemiadipate, 3′,4′-dihydroxy-3-hemiadipate, 3-hydroxyflavone-3-phosphate. A 20 minute incubation period was allowed for the flavonoids before examining the responses to Ca^2+.\nTo determine the effect of flavonoids on responses to the influx of extracellular Ca^2+, contractile responses to exogenous application of Ca^2+ were examined in the presence of flavonoids in Ca^2+-free high-K^+ solution (60 mM, K+-PSS). Aortic rings were initially equilibrated at a resting tension of 1 g in Ca^2+-free PSS for 45 minutes. The bath medium was then replaced with Ca^2+-free K+-PSS for 45 minutes to determine a reference contraction to added Ca^2+ (3 mM). Following a 30 minute re-equilibration period with Ca^2+-free PSS, the cumulative contractile responses to Ca^2+ (10^−5−3×10^−3 M) were determined in K^+ PSS in the presence of vehicle (0.1% DMSO), or a range of concentrations (10^−7-10^−4 M) of 3′-hydroxyflavonol, F3HA, DiOHF3HA or F3P. A 20 minute incubation period was allowed for the flavonoids before examining the responses to Ca^2+. Experiments were conducted in the presence and absence of BuCHE (1000 U/L) to cleave the adipate in F3HA and DiOHF3HA. In experiments using F3P, phosphatase (1000 U/L) was used in some experiments to cleave the phosphate."}, "anaesthetised rats": {"tested_on": "anaesthetised rats", "assay": "Arterial pressure and heart rate in anaesthetised rats after intravenous injection", "format": "in vivo, rat", "settings": "intravenous, anaesthetised rats; disodium salt", "method": "A unit dosage of an aqueous solution of 3-hydroxyflavone-3-hemiadipate (15) was administered to a group of male anesthetized Sprague Dawley rats intravenously and the blood pressure monitored over a period of time.\nMale Sprague-Dawley rats (250-350 g) were anaesthetised with pentobarbitone sodium (60 mg kg^−1, ip). The trachea was isolated and cannulated with polyethylene tracheal tube (I.D. 2.0 mm), and the rat was allowed to breathe spontaneously.\nThe right carotid artery was cannulated and connected with a heparinised saline filled cannula (O.D. 0.75, I.D, 0.58 mm) and connected to a pressure transducer. Mean and phasic arterial pressure were continuously measured and recorded on a polygraph. The heart rate, was derived from the phasic arterial pressure using a tachometer.\nDiOHF3HA ([…]) was injected intravenously, allowing at least 30 min between injections, and the peak changes in mean arterial pressure and heart rate measured. […] In a separate group of experiments ACh (0.3 mg/kg iv) and phenylephrine (PE, […]) were injected before and 30 minutes after DiOHF3HA (3 mg/kg iv), a time when arterial pressure and heart rate had returned to control levels. […]"}, "aortic rings": {"tested_on": "aortic rings", "assay": "Effect on SNP relaxation of precontracted rat aortic rings", "format": "cell-based", "settings": "in the presence of BuCHE or phosphatase", "method": "as §1"}},
  "note": "Entries after “also recorded” stand apart in the source; their conditions may differ.",
  "data": [
    {"smiles": "O=c1c(OP(=O)([O-])[O-])c(-c2ccccc2)oc2ccccc12.[Na+].[Na+]", "note": "[F3P, 3-Hydroxyflavone-3-phosphate disodium salt]", "values": [
      {"measurement": "effect on superoxide generation", "setting": "[1]; in the presence of cleaving enzyme (BuCHE for hemiadipates, phosphatase for phosphate, 1000 U/L)", "result": "concentration-dependent inhibition of superoxide levels; also recorded: inhibit superoxide levels produced by rat aorta"},
      {"measurement": "effect on superoxide generation", "setting": "[1]; in the presence of cleaving enzyme (BuCHE for hemiadipates, phosphatase for phosphate, 1000 U/L), listed as flavone-3-phosphate", "result": "concentration dependent decrease in the levels of superoxide"},
      {"measurement": "effect on superoxide generation", "setting": "[1]; substance alone, no added esterase/phosphatase, up to 10^−4 M, NADPH", "result": "no effect on superoxide generation; also recorded: no antioxidant or vascular activity"},
      {"measurement": "effect on superoxide generation", "setting": "[1]; substance alone, no added esterase/phosphatase, up to 10^−4 M, NADPH, listed as 3-hydroxyflavone-3-phosphate", "result": "measurable effect on the superoxide anion generation"},
      {"measurement": "Rmax of ACh relaxation", "setting": "[2]; F3P 10^−4 M + phosphatase", "result": "100 ± 1"},
      {"measurement": "Rmax of ACh relaxation", "setting": "[2]; F3P 10^−5 M + phosphatase", "result": "100 ± 1"},
      {"measurement": "effect on relaxant response to ACh", "setting": "[2]; in the presence of phosphatase, disodium salt", "result": "enhanced; also recorded: increased the sensitivity of rat aortic rings to relaxation by ACh"},
      {"measurement": "maximum response to ACh under oxidant stress", "setting": "[3]", "result": "the response was restored; also recorded: enhance endothelium-dependent relaxation in the presence of oxidant stress"},
      {"measurement": "effect on Ca^2+-induced contraction", "setting": "[4]; alone, highest concentration 10^−4 M", "result": "partial inhibition of the calcium-induced contraction"},
      {"measurement": "effect on Ca^2+-induced contraction", "setting": "[4]; alone, over the concentration range tested", "result": "small inhibition of calcium-induced contraction"},
      {"measurement": "effect on Ca^2+-induced contraction", "setting": "[4]; in the presence of BuCHE or phosphatase (1000 U/L), listed as flavone-3-phosphate, disodium salt", "result": "markedly enhanced the inhibitory effects"},
      {"measurement": "change in heart rate (HR)", "setting": "anaesthetised rats", "result": "dose-dependent decrease in HR; also recorded: only small concentration dependent decreases"},
      {"measurement": "change in mean arterial pressure (MAP)", "setting": "anaesthetised rats", "result": "dose-dependent decreases in MAP; also recorded: only small concentration dependent decreases"},
      {"measurement": "effect on relaxant response to SNP", "setting": "aortic rings", "result": "not SNP"}
    ]}
  ]
}
